Experimental data reported in paper PMC10765375, “Crystal structure and enzymology of Solanum tuberosum inositol tris/tetrakisphosphate kinase 1 (StITPK1)” (Biochemistry, 2023).
“Also recorded” adds a separate entry of the source. Counter-ions that a name gives are not always drawn. Like-named read-outs stand apart in the source and are kept apart here.

Legend:
AtITPK1 [1] = target: T1, AtITPK1; test: Kinase assay with ATP, HPLC of products; type: biochemical, Arabidopsis thaliana; conditions: for kinase substrate status: with ATP, HPLC
T1 construct: made in house
Method: (§1) Kinase assays were performed with ATP-regeneration as described for ATP-grasp kinases ITPK1/2 and VIH1/2 [2-3, 27-29], here in 20 mM HEPES pH 6.5, 1 mM MgCl2, 0.5 mM ATP and 1 mM inositol phosphate substrate. The low rate constants for phospho-kinase activity and the low sensitivity of NMR, PAGE and HPLC […]
(§2) [2-3, 27-29], here with or without 4 µM protein for 3h or 12h at 25 °C. […]
(§3) 0.5 mM inositol pyrophosphate substrate incubated with 4 µM protein at 25 °C . HPLC analysis and detection of inositol phosphates by complexation with ferric ion was performed as described. Peak area data were analysed with the chromatography Jasco ChromNav v.2 software and x,y data were imported into GraphPad Prism v.6 software (GraphPad Software Inc., San Diego, USA) for plotting of chromatograms without additional processing of the data. […]

StITPK1 [2] = target: T2, StITPK1 (Solanum tuberosum, UniProt A4H2J0); test: Fluorescence polarization displacement of 2-FAM-InsP5; type: binding; conditions: Cheng-Prusoff with Kd 48 nM
From the text: To determine the relative strengths of binding of different inositol phosphate and inositol pyrophosphate substrates of StITPK1 we undertook fluorescence polarization experiments with 2-FAM-InsP5 [35]. […] A saturation curve for binding of 2-FAM-InsP5 to StITPK1 is shown (Figure S5) and displacement curves are shown for diverse inositol phosphates (Figure 2). The structures of these compounds are shown (Figure S1). […]
Fluorescence polarization (anisotropy)
A curve for binding of 2-FAM-InsP5 to StITPK1 was obtained by incubation of 2 nM 2-FAM-InsP5 [1] with increasing concentration (1-500 nM) of StITPK1 in 20 mM HEPES pH 6.5, 1 mM EDTA, 100 mM NaCl, after. Thereafter, displacement assays were performed by titration of inositol phosphate, inositol pyrophosphate […]
or analog thereof with 2 nM 2-FAM-InsP5 and 50 nM StITPK1. Compounds were tested for displacement in a range of 1 nM - 50 µM. Fluorescence polarization was measured in 384-well, black, low-binding plates, Corning product 3573. Binding and displacement curves (anisotropy) were log transformed and fitted to a 4-parameter logistic (in GraphPad Prism v.6 software (GraphPad Software Inc., San Diego, USA). Fitting of the […]
Substituting the value of Kd for KM in the Cheng-Prusoff equation for competitive inhibition: […]
with concentration of 2-FAM-InsP5 [S], yielded Ki with confidence intervals adjusted by linear approximation.
M.; Jamieson, A. G.; Potter, B. V.; Schwabe, J. W., Insights into the activation mechanism of class I HDAC complexes by inositol phosphates. Nat Commun 2016, 7, 11262. […]

StITPK1 [3] = target: T2, StITPK1; test: Kinase assay with ATP, HPLC of products; type: biochemical; conditions: for Product formation (3h) / Product formation (12h): 25°C; for kinase substrate status: with ATP, HPLC
Method: as §1
(§4) [2-3, 27-29], here with or without 4 µM protein for 3h or 12h at 25 °C. Competition/inhibition assays were […]
InsP6, and competitor, typically 0.5 mM, incubated with or without 3 µM protein for 2 h at 25 °C . […]
as §3

AtVIH2 = system: AtVIH2; set-up: method as in PMID 31436531; conditions: isolated kinase domain ref 24; cited from earlier work
StITPK1 [4] = target: T2, StITPK1; test: Competition/inhibition of Ins(1,2,3,4,5)P5 5-phospho-kinase activity, HPLC; type: biochemical; conditions: 0.5 mM competing substrate/inhibitor, 1 mM Ins(1,2,3,4,5)P5, 3h experiment
AtITPK1 [5] = system: T1, AtITPK1; conditions: cited from earlier work
StITPK1 [6] = target: T2, StITPK1; test: Reverse (phosphotransfer to ADP) assay, HPLC; type: biochemical; conditions: 0.5 mM ADP, 12h
Method: The low rate constants for phospho-kinase activity and the low sensitivity of NMR, PAGE and HPLC […]
as §2
(phosphotransfer to ADP) assays were performed with 20 mM HEPES pH 6.5, 1 mM MgCl2, 0.5mM ADP and 0.5 mM inositol pyrophosphate substrate incubated with 4 µM protein at 25 °C . HPLC analysis and detection of inositol phosphates by complexation with ferric ion was performed as described. Peak area data were analysed with the chromatography Jasco ChromNav v.2 software and x,y data were imported into GraphPad Prism v.6 software (GraphPad Software Inc., San Diego, USA) for plotting of chromatograms without additional processing of the data. […]

StITPK1 [7] = target: T2, StITPK1; test: Fluorescence polarization saturation binding of 2-FAM-InsP5; conditions: 2 nM probe, 1-500 nM StITPK1, one-site binding model
Method: Schrödinger, LLC, New York, NY, 2021). All models of the complexes were subsequently energy minimized to convergence using the Prime module of Schrodinger (Schrödinger Release 2022-2: Prime) employing the all atom OPLS force field and the VSGB 2.1 implicit solvent model. Illustrations were generated using the PyMOL Molecular Graphics System, Version 2.5 (Schrödinger, LLC).
as §1, §4
(§5) InsP6, and competitor, typically 0.5 mM, incubated with or without 3 µM protein for 2 h at 25 °C . […] Peak area data were analysed with the chromatography Jasco ChromNav v.2 software and x,y data were imported into GraphPad Prism v.6 software (GraphPad Software Inc., San Diego, USA) for plotting of chromatograms without additional processing of the data.
(§6) Fluorescence polarization (anisotropy) […]
or analog thereof with 2 nM 2-FAM-InsP5 and 50 nM StITPK1. […] Fluorescence polarization was measured in 384-well, black, low-binding plates, Corning product 3573. […]

StITPK1 [8] = target: T2, StITPK1; test: Competition/inhibition of InsP6 5-phospho-kinase activity, HPLC; type: biochemical; conditions: 5 μM inhibitor, 1 mM InsP6
Method: Figure 6 Inhibition of StITPK1 phospho-kinase activity by inositol pyrophosphate analogs. […] Reactions were performed for 2h at 30 °C with 3 μM StITPK1, 0.5 mM ATP, 1mM inositol phosphate in the absence or presence of competitor. The extent of inhibition at inhibitor concentration (mM) indicated by number in each column was estimated from the integrated peak areas of substrate and product peaks resolved by HPLC (example HPLC traces are shown in Figure S10). Significant difference at p=0.05 between inhibitor treatments (by One-way ANOVA and Tukey’s multiple comparisons test) is indicated by the absence of a common letter.
Schrödinger, LLC, New York, NY, 2021). All models of the complexes were subsequently energy minimized to convergence using the Prime module of Schrodinger (Schrödinger Release 2022-2: Prime) employing the all atom OPLS force field and the VSGB 2.1 implicit solvent model. Illustrations were generated using the PyMOL Molecular Graphics System, Version 2.5 (Schrödinger, LLC). […]
as §5, §6

[9] = 2 nM 2-FAM-InsP5, 50 nM StITPK1, pH 6.5, read-out: Ki for displacement of 2-FAM-InsP5

T2 sequence (A4H2J0 entry or part of it): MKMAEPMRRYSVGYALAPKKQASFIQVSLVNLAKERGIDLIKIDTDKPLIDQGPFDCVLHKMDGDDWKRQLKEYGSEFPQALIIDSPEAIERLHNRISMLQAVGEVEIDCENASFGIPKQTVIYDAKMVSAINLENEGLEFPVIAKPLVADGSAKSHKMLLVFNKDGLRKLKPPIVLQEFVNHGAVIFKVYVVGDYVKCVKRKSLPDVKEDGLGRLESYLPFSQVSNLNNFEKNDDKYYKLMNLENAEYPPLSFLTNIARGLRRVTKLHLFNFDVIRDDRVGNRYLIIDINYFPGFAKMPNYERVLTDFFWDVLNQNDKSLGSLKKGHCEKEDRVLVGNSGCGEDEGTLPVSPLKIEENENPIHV

## O=P(O)(O)O[C@H]1[C@@H](OP(=O)(O)O)[C@H](OP(=O)(O)O)[C@@H](OP(=O)(O)OP(=O)(O)O)[C@H](OP(=O)(O)O)[C@H]1OP(=O)(O)O [5-PP-InsP5, 5-diphospho-myo-inositol 1,2,3,4,6-pentakisphosphate]
AtITPK1 [1]
  kinase substrate status: not a substrate
StITPK1 [2]; [9]
  Ki: 162 nM
StITPK1 [3]; 1 mM substrate
  Product formation (3h): 0 μM/μM protein
  Product formation (12h): 0 μM/μM protein
StITPK1 [3]
  kinase substrate status: not a substrate
AtVIH2
  turnover number, 1-phospho-kinase activity: ~ 1 min^-1
StITPK1 [4]
  % inhibition at 3h, Ins(1,2,3,4,5)P5 substrate: 82%

## O=P(O)(O)O[C@H]1[C@H](OP(=O)(O)O)[C@@H](OP(=O)(O)O)[C@H](OP(=O)(O)O)[C@@H](OP(=O)(O)O)[C@H]1OP(=O)(O)O [myo-InsP6, myo-inositol 1,2,3,4,5,6-hexakisphosphate]
AtITPK1 [1]
  kinase substrate status: strongest phospho-kinase substrate
StITPK1 [2]; Ki for displacement of 2-FAM-InsP5, 2 nM 2-FAM-InsP5, 50 nM StITPK1, pH 6.5
  Ki: 126 nM
StITPK1 [3]; 1 mM substrate
  Product formation (3h): 241 μM/μM protein
  Product formation (12h): 289 μM/μM protein
StITPK1 [3]; 1 mM substrate, separate 12h experiment
  Product formation (separate 12h experiment): 220 μM/μM protein
StITPK1 [3]; in the absence of inhibitor, 1 mM substrate, 0.5 mM ATP, pH 6.5
  Kcat (turnover of substrate): ~ 1.14 min^-1
StITPK1 [3]
  kinase substrate status: generating 5-PP-InsP5; also recorded: strongest phospho-kinase substrate
AtVIH2
  turnover number, 1-phospho-kinase activity: ~ 0.4 min^-1
StITPK1 [4]
  % inhibition at 3h, Ins(1,2,3,4,5)P5 substrate: 89%
AtITPK1 [5]; calculated from data ref 20-21, 27
  Kcat for phospho-kinase activity: ~ 1.5 min^-1

## O=P(O)(O)O[C@@H]1[C@@H](OP(=O)(O)O)[C@H](OP(=O)(O)OP(=O)(O)O)[C@@H](OP(=O)(O)O)[C@H](OP(=O)(O)OP(=O)(O)O)[C@@H]1OP(=O)(O)O [1,5-[PP]2-InsP4, 1D-1,5-bis-diphospho-myo-inositol 2,3,4,6-tetrakisphosphate]
StITPK1 [6]
  substrate for phosphotransfer to ADP: both enantiomers are substrates

## O=P(O)(O)O[C@@H]1[C@H](OP(=O)(O)O)[C@H](OP(=O)(O)OP(=O)(O)O)[C@@H](OP(=O)(O)O)[C@H](OP(=O)(O)OP(=O)(O)O)[C@H]1OP(=O)(O)O [3,5-[PP]2-InsP4, 1D-3,5-bis-diphospho-myo-inositol 1,2,4,6-tetrakisphosphate]
StITPK1 [6]
  substrate for phosphotransfer to ADP: both enantiomers are substrates

## O=C(NCCO[C@H]1[C@@H](OP(=O)(O)O)[C@H](OP(=O)(O)O)[C@@H](OP(=O)(O)O)[C@H](OP(=O)(O)O)[C@H]1OP(=O)(O)O)c1ccc2c(c1)C(=O)OC21c2ccc(O)cc2Oc2cc(O)ccc21 [2-FAM-InsP5, 2-O-(2-(5-fluoresceinylcarboxy)-aminoethyl)-myo-inositol 1,3,4,5,6-pentakisphosphate (triethylammonium salt)]
StITPK1 [7]
  Kd: 48 nM

## O=P(O)(O)O[C@H]1[C@H](OP(=O)(O)O)[C@@H](OP(=O)(O)O)[C@@H](O)[C@@H](O)[C@@H]1OP(=O)(O)O [Ins(3,4,5,6)P4, 1D-myo-inositol 3,4,5,6-tetrakisphosphate]
StITPK1 [8]
  inhibition of 5-PP-InsP5-synthesizing (InsP6 phospho-kinase) activity: particularly powerful inhibitor
AtITPK1 [1]; vs Ins(1,4,5,6)P4
  Discrimination between InsP4 enantiomers in favour of Ins(3,4,5,6)P4: ~ 200 fold
StITPK1 [2]; [9]
  Ki: 716 nM
StITPK1 [3]; vs Ins(1,4,5,6)P4
  Discrimination between InsP4 enantiomers in favour of Ins(3,4,5,6)P4: ~ 200 fold
StITPK1 [3]
  kinase substrate status: better substrate than both its enantiomer Ins(1,4,5,6)P4 and InsP6
AtITPK1 [5]
  Vmax relative to InsP6: 3 orders of magnitude greater

## O=P(O)(O)CP(=O)(O)OC1C(OP(=O)(O)O)C(OP(=O)(O)O)C(OP(=O)(O)O)C(OP(=O)(O)CP(=O)(O)O)C1OP(=O)(O)O (stereo not drawn) [1,5-[PCP]2-InsP4]
StITPK1 [6]
  substrate for phosphotransfer to ADP: neither
